Experimental findings from patent US11364275B2, “Linear lipopeptide paenipeptins and methods of using the same” (priority 2017, dated 2022) are described below.

Converted amounts (≈) assume the structure as drawn. Where two headings read alike, the source gives them in different places. Where a SMILES comes first, the peptide text is derived from it. [ ]: non-standard residue; d: D form. Cha = N[C@@H](CC1CCCCC1)C(=O)O; Dab = NCC[C@H](N)C(=O)O A value given as a limit tells only on which side of the number the result lay.

Data set [1] relates to Acinetobacter baumannii ATCC 19606. Nature of the data set: MIC of antibiotics with or without paenipeptin analogues (potentiation). It counts as cell-based. The settings on record: Acinetobacter baumannii, ATCC19606; A. baumannii ATCC 19606; rifampicin alone; read-out: MIC of rifampicin at 0 μg/mL of paenipeptin analogues. From the text: (§1) Gram-negative bacteria, including Acinetobacter and Klebsiella, are intrinsically resistant to the hydrophobic antibiotic rifampicin.

In data set [2] the test system is Klebsiella pneumoniae ATCC 13883. The data set is described as above. The format is cell-based. The settings on record: Klebsiella pneumoniae, ATCC13883.
Source text: as §1

Data set [3] deals with A. baumannii FDA-CDC AR 0063. Nature of the data set: Time-kill kinetics in 95% human serum, alone and combined. It counts as cell-based, Acinetobacter baumannii. The following applies: A. baumannii AR 0063, 24 h. On the procedure: Bacterial viable counts were determined at 0, 2, 4, 6, and 24 h after antimicrobial treatment. Bacterial surviving counts at 24 h endpoints were subjected to analysis of variance (ANOVA) followed by Tukey's honest significant difference (HSD) tests using SPSS Statistics (version 24; SPSS, Inc., Chicago, Ill., USA).
To further test the therapeutic potential of paenipeptin analogues, the time-kill kinetics assays of paenipeptins alone or in combination with other antibiotics were performed in 95% human serum in vitro. Without antimicrobial treatment, the population of A. baumannii FDA-CDC AR 0063 increased from 5.8 log to 9.3 log within 24 h. […] (FIG. 7A).

The test system of data set [4] is A. baumannii FDA-CDC AR 0037. The data set is described as follows: microbe, parasite or virus in culture. The following applies: Acinetobacter baumannii, read-out: MIC alone.
In data set [5] the test system is A. baumannii FDA-CDC AR 0052. Nature of the data set: microbe, parasite or virus in culture. The settings on record: Acinetobacter baumannii, read-out: MIC alone.
Data set [6] has as its system A. baumannii FDA-CDC AR 0063. The data set is described as follows: microbe, parasite or virus in culture. The settings on record: Acinetobacter baumannii, read-out: MIC alone.
The subject of data set [7] is A. baumannii FDA-CDC AR 0070. Nature of the data set: microbe, parasite or virus in culture. The settings on record: Acinetobacter baumannii, read-out: MIC alone.
For data set [8], the system named is A. baumannii FDA-CDC AR 0083. Nature of the data set: microbe, parasite or virus in culture. The following applies: Acinetobacter baumannii, read-out: MIC alone.
The subject of data set [9] is K. pneumoniae FDA-CDC AR 0034. Nature of the data set: microbe, parasite or virus in culture. The following applies: Klebsiella pneumoniae, read-out: MIC alone.
In data set [10] the test system is K. pneumoniae FDA-CDC AR 0044. Nature of the data set: microbe, parasite or virus in culture. The settings on record: Klebsiella pneumoniae, read-out: MIC alone.
Data set [11] has as its system K. pneumoniae FDA-CDC AR 0068. The data set is described as follows: microbe, parasite or virus in culture. The following applies: Klebsiella pneumoniae, read-out: MIC alone.
The subject of data set [12] is K. pneumoniae FDA-CDC AR 0080. Nature of the data set: microbe, parasite or virus in culture. The settings on record: Klebsiella pneumoniae, read-out: MIC alone.
For data set [13], the system named is K. pneumoniae FDA-CDC AR 0097. Nature of the data set: microbe, parasite or virus in culture. The settings on record: Klebsiella pneumoniae, read-out: MIC alone.
Data set [14] relates to Acinetobacter baumannii ATCC 19606. It counts as cell-based. The following applies: A. baumannii.
In data set [15] the test system is Escherichia coli ATCC 25922. The format is cell-based. The settings on record: ATCC 25922.
The test system of data set [16] is Klebsiella pneumoniae ATCC 13883. The format is cell-based. The following applies: K. pneumoniae.
Method: The minimum inhibitory concentration (MIC) of paenipeptin analogues was determined using the broth microdilution method (Wirker, M. A. Methods for Dilution Antimicrobial Susceptibility Tests for Bacteria that Grow Aerobically: Approved Standard M07-A8; Clinical and Laboratory Standards Institute, Wayne, Pa., 2009). Seven reference strains (Acinetobacter baumannii ATCC 19606, Escherichia coli ATCC 25922, Klebsiella pneumoniae ATCC 13883, Pseudomonas aeruginosa ATCC 27853, Enterococcus faecium ATCC 19434, Staphylococcus aureus ATCC 29213 and methicillin-resistant S. aureus ATCC 43300) were subjected to MIC testing.
(§6) Paenipeptin analogues were two-fold diluted in tryptic soy broth (TSB; Becton Dickinson) and mixed with an equal volume of bacterial suspensions in TSB containing approximately 1.5×10^5 colony-forming units (CFU)/mL in a clear UV-sterilized 96-well microtiter plate (NBS, Corning Inc., Corning, N.Y.). […] The microtiter plate was incubated at 37° C. for 18-20 h.
The next data set deals with A. baumannii ATCC 19606. It counts as cell-based, Acinetobacter baumannii. From the text: (§2) The surviving cells from each antimicrobial concentration with no visible growth were enumerated by plating on tryptic soy agar (TSA). MBC was defined as the lowest concentration of the antimicrobial agent that led to at least a 99.9% reduction in the number of viable bacterial cells relative to the initial inoculum. There were three independent experiments with one replicate in each experiment.

The test system of data set [17] is E. coli ATCC 25922. The format is cell-based, Escherichia coli.
Source text: as §2

The test system of data set [18] is P. aeruginosa ATCC 27853. The format is cell-based, Pseudomonas aeruginosa.
Source text: as §2

For data set [19], the system named is P. aeruginosa ATCC 27853. The data set is described as follows: Time-kill assay. The format is cell-based, Pseudomonas aeruginosa. How it is done: (§3) The surviving cells after antimicrobial treatment were enumerated at 0, 2, 4, 6 and 24 h by plating on TSA. There were three independent experiments with one replicate in each experiment
Data set [20] deals with S. aureus ATCC 29213. Nature of the data set: Time-kill assay. It counts as cell-based, Staphylococcus aureus. The following applies: for reduction of viable cells: after 4 h. On the procedure: as §3
Data set [21] relates to E. coli ATCC 25922. It counts as cell-based, Escherichia coli. The settings on record: E. coli; 95% serum vs TSB. How it is done:
(§4) The impact of human serum on the antibacterial activity of selected paenipeptin analogues was determined using a procedure similar to that used for MIC determination as described above except that the microbiological medium was replaced by human serum (MP Biomedicals, Solon, Ohio). Paenipeptin analogues were two-fold diluted in 100% human serum and mixed with an equal volume of 90% serum containing approximately 1.5×10^5 CFU/mL of E. coli ATCC 25922 or S. aureus ATCC 29213. The final paenipeptin concentrations ranged from 0.5-64 μg/mL in 95% serum. The MIC in the presence of serum was then tested as described above.

Data set [22] concerns S. aureus ATCC 29213. The format is cell-based, Staphylococcus aureus. The following applies: S. aureus; 95% serum vs TSB. How it is done:
as §4

For data set [23], the system named is Escherichia coli ATCC 25922. The format is in vitro ADME. On the procedure: To determine the stability of peptides in human serum, paenipeptin analogues were added into 100% human serum to a final concentration of 64 μg/ml. The mixtures were incubated at 37° C. and samples were withdrawn at 0, 6, 12 and 24 h. […] The residual antibacterial activity after incubation in human serum was compared to the non-treated control.

A further data set concerns rabbit red blood cells. Nature of the data set: Hemolytic activity. It counts as cell-based. The following applies: relative to Triton X-100. A digest of the protocol:
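Washed defibrinated rabbit RBCs in PBS pH 7.2 incubated 30 min at 37 °C with paenipeptin analogues at 16–128 μg/mL final. Released hemoglobin read at 415 nm in the supernatant; % hemolysis relative to 0.1% Triton X-100.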

In data set [24] the test system is methicillin-resistant S. aureus strain LAC biofilm. The data set is described as follows: Established catheter-associated biofilm in vitro. The following applies: for reduction of viable biofilm-associated cells: 72 h. It counts as cell-based, Staphylococcus aureus. How it is done: (§5) Each well was inoculated with the methicillin-resistant S. aureus strain LAC or P. aeruginosa ATCC 27853 to an OD600nm of 0.05. […] After 72 h of exposure, catheters were rinsed with PBS, followed by sonication (for S. aureus) or vigorous vortexing (for P. aeruginosa) to quantitatively recover adherent bacteria. Viable S. aureus or P. aeruginosa cells were enumerated by plating serial dilutions on TSA.

Data set [25] has as its system P. aeruginosa ATCC 27853 biofilm. The data set is described as follows: Established catheter-associated biofilm in vitro. The following applies: 40× MIC (40 μg/ml). The format is cell-based, Pseudomonas aeruginosa. On the procedure:
as §5

Data set [26] deals with P. aeruginosa ATCC 27853. The data set is described as follows: Impact of purified LPS on bactericidal activity. The format is cell-based, Pseudomonas aeruginosa. The settings on record: LPS 100 μg/ml; analogue at 16 μg/mL; 60 min. How it is done:
For studies with LPS, P. aeruginosa ATCC 27853 was diluted with TSB to contain approximately 10^6 CFU/mL. […] The mixtures were incubated at 37° C. with agitation at 200 rpm for 60 min. Surviving cells were quantified by plating on TSA. There were three independent experiments with one replicate in each experiment. […] There were four independent experiments with one replicate in each experiment.

Data set [27] deals with S. aureus ATCC 29213. The data set is described as follows: Impact of purified LTA on bactericidal activity. It counts as cell-based, Staphylococcus aureus. The settings on record: analogue at 32 μg/mL, 60 min.
The subject of data set [28] is nine carbapenem-resistant clinical isolates from the FDA-CDC Antibiotic Resistance Bank. The following applies: range over nine carbapenem-resistant clinical isolates.
Method: The minimum inhibitory concentration (MIC) of paenipeptin analogues was determined using the broth microdilution method (Wirker, M. A. Methods for Dilution Antimicrobial Susceptibility Tests for Bacteria that Grow Aerobically: Approved Standard M07-A8; Clinical and Laboratory Standards Institute, Wayne, Pa., 2009).
as §6
There were at least three independent experiments with one replicate in each experiment.

With `CO[C@H]1/C=C/O[C@@]2(C)Oc3c(C)c(O)c4c(O)c(c(/C=N/N5CCN(C)CC5)c(O)c4c3C2=O)NC(=O)/C(C)=C\C=C\[C@H](C)[C@H](O)[C@@H](C)[C@@H](O)[C@@H](C)[C@H](OC(C)=O)[C@@H]1C` [rifampicin], the MIC was determined as 16 µg/mL in [1]; 16 µg/mL in data set [2] (K. pneumoniae ATCC 13883, rifampicin alone, read-out: MIC of rifampicin at 0 μg/mL of paenipeptin analogues); 19.4 µM in data set [2] (K. pneumoniae, read-out: MIC of rifampicin alone); 2 µg/mL (≈ 2.43 µM) in [4]; 1 µg/mL (≈ 1.22 µM) in [5]; 1 µg/mL (≈ 1.22 µM) in data set [6]. In addition, the MIC in [7] is 1 µg/mL (≈ 1.22 µM); in [8], 32 µg/mL (≈ 38.9 µM); in data set [9] it was 16 µg/mL (≈ 19.4 µM); in data set [10], 32 µg/mL (≈ 38.9 µM); in [11], 32 µg/mL (≈ 38.9 µM); in [12] it was over 32 µg/mL. Further, the MIC in data set [13] is 32 µg/mL (≈ 38.9 µM). Besides, the “log reduction of cell population, single agent at 4 μg/ml” value in data set [3] is given as 1.4 log.
As a reminder, the MBC is the lowest tested concentration that kills the bacteria rather than only halting them. High values mean less potent killing, low ones more potent killing. Take `CC(C)C[C@H](NC(=O)[C@@H](Cc1ccccc1)NC(=O)[C@H](CCN)NC(=O)[C@H](Cc1ccccc1)NC(=O)[C@H](CCN)NC(=O)[C@@H](N)CC1CCCCC1)C(=O)N[C@@H](CCN)C(=O)N[C@H](CC(C)C)C(=O)N[C@@H](Cc1ccccc1)C(=O)N[C@@H](CO)C(N)=O` [Analogue 17] (H-[Cha][Dab]F[Dab][dF]L[Dab][dL]FS-NH2): the “improvement in antibacterial activity by comparison to compound 8” value in [14] and in [16] was at least 4 fold in each case. Further, the MIC in [15] was 0.5 to 1 µg/mL; in data set [28], 0.5 to 2 µg/mL. Moreover, the MBC with A. baumannii ATCC 19606 lay in the range of 4 to 8 µg/mL; in the data set with E. coli ATCC 25922 [17] it was 8 to 16 µg/mL; against P. aeruginosa ATCC 27853 [18] it was 2 to 4 µg/mL. In addition, the “reduction of viable cells” value in the data set on P. aeruginosa ATCC 27853 [19] (8 μg/ml, 2 h) worked out at 2.2 log; in the data set with P. aeruginosa ATCC 27853 [19] (16 μg/ml, within 2 h), 3.7 logs; with P. aeruginosa ATCC 27853 [19] (32 μg/ml, within 2 h) it was 5.1 logs; in the data set on S. aureus ATCC 29213 [20] (16 μg/ml), 3.1 logs; in the data set on S. aureus ATCC 29213 [20] (32 μg/ml) it was 5.4 logs. The “regrowth at 24 h” value in the data set on P. aeruginosa ATCC 27853 [19] (8 μg/ml, 24 h) was “significant bacterial regrowth was observed”. The “viable cells after 24 h exposure” value with P. aeruginosa ATCC 27853 [19] (16 μg/ml, 24 h) is recorded as “no viable cells were detected”; in the data set on P. aeruginosa ATCC 27853 [19] (32 μg/ml, 24 h), “no viable cells were detected”. In the data set with S. aureus ATCC 29213 [20] (8 μg/ml), the regrowth result is “Regrowth”. Besides, the “reduction in activity in the presence of human serum” value in the data set with E. coli ATCC 25922 [21] and in the data set on S. aureus ATCC 29213 [22] was 88-94% throughout. The “MIC after incubation in human serum at 37° C.” value in [23] (ATCC 25922, 0 h) was 4 to 8 µg/mL; in data set [23] (ATCC 25922, 6 h), 4 to 8 µg/mL; in [23] (ATCC 25922, 12 h) it was 4 to 8 µg/mL. Moreover, the Hemolysis in the data set on rabbit red blood cells (16 μg/mL) is reported as 0.60 ± 0.18%; in the data set on rabbit red blood cells (32 μg/mL), 2.46 ± 0.34%; in the data set with rabbit red blood cells (64 μg/mL) it was 11.02 ± 0.99%; with rabbit red blood cells (128 μg/mL) it was 34.6 ± 0.91%. In addition, the “reduction of viable biofilm-associated cells” value in data set [24] (40 μg/mL (5×MIC)) stood at 3 log; in data set [24] (160 μg/mL (20×MIC)), 5 log. Further, the “catheters completely cleared of viable bacteria” value in data set [24] (20 times MIC, six catheters) amounted to 50%. Further, the “reduction of viable cells in established biofilm” value in [25] is on record as 2.6 log. For the same compound, in the data set on P. aeruginosa ATCC 27853 [26], the “impact of purified LPS on bactericidal activity” value is reported as “neutralized the bactericidal activity”. The “impact of purified LTA on antibacterial activity” value with S. aureus ATCC 29213 [27] (LTA 50 μg/ml) is reported as “some inhibition”; in the data set with S. aureus ATCC 29213 [27] (LTA 100 μg/mL) it was “significantly reduced the antibacterial activity”.
